Reference: patent publication US8012942B2, “Carba-nucleoside analogs for antiviral treatment” (Gilead Sciences, Inc., priority 2009, dated 2011)
pEC50, pIC50: −log10 of the molar value. Where two headings read alike, the source gives them in different places.

Tests used:
Replicon cells = test: HCV EC50 determination, replicon luciferase assay; format: cell-based; settings: Hepatitis C virus, 72 h
Method: Replicon cells were seeded in 96-well plates at a density of 8×10^3 cells per well in 100 μL of culture medium, excluding Geneticin. Compound was serially diluted in 100% DMSO and then added to the cells at a 1:200 dilution, achieving a final concentration of 0.5% DMSO and a total volume of 200 μL. Plates were incubated at 37° C. for 3 days, after which culture medium was removed and cells were lysed in lysis buffer provided by Promega's luciferase assay system. Following the manufacturer's instruction, 100 μL of luciferase substrate was added to the lysed cells and luciferase activity was measured in a TopCount luminometer.

HCV Δ21 NS5b polymerase = molecular target: T1, HCV Δ21 NS5b polymerase (Hepatitis C virus genotype 1b, UniProt Q9WMX2); test: HCV IC50 determination, NS5b polymerase assay; format: biochemical
T1 construct: 75 nM HCV Δ21 NS5b polymerase
Method: Assay Protocol: Either wild type or S282T (Migliaccio, et al, J. Biol. Chem. 2003, 49164-49170; Klumpp, et al., J. Biol. Chem. 2006, 3793-3799) mutant polymerase enzyme was used in this assay. NS5b polymerase assay (40 μL) was assembled by adding 28 μL polymerase mixture (final concentration: 50 mM Tris-HCl at pH 7.5, 10 mM KCL, 5 mM MgCl2, 1 mM DTT, 10 mM EDTA, 4 ng/μL of RNA template, and 75 nM HCV Δ21 NS5b polymerase) to assay plates followed by 4 μL of compound dilution. The polymerase and compound were pre-incubated at 35° C. for 10 minute before the addition of 8 μL of nucleotide substrate mixture (33P-α-labeled competing nucleotide at KM and 0.5 mM of the remaining three nucleotides). The assay plates were covered and incubated at 35° C. for 90 min. Reactions were then filtered through 96-well DEAE-81 filter plates via vacuum. The filter plates were then washed under vacuum with multiple volumes of 0.125 M NaHPO4, water, and ethanol to remove unincorporated label. Plates were then counted on TopCount to assess the level of product synthesis over background controls. The IC50 value is determined using Prism fitting program.

[1] = replicon cells, 3 days at 37° C., luciferase activity, read-out: EC50

SMILES	pEC50 (Replicon cells; [1])	pIC50 (HCV Δ21 NS5b polymerase)	also measured
C[C@@]1(O)[C@H](O)[C@@H](CO)O[C@H]1c1scc2c(N)ncnc12 [Compound 1]	4.05	–	–
CC(C)(C)C(=O)SCCOP(=O)(OCCSC(=O)C(C)(C)C)OC[C@H]1O[C@@H](c2scc3c(N)ncnc23)[C@](C)(O)[C@@H]1O [Compound 2]	5.21	–	–
C[C@@]1(O)[C@H](O)[C@@H](COP(=O)(O)OP(=O)(O)OP(=O)(O)O)O[C@H]1c1scc2c(N)ncnc12 [Compound 4]	–	6.43	–
CC(C)(C)C(=O)SCCOP(=O)(OCCSC(=O)C(C)(C)C)OC[C@H]1O[C@@H](c2scc3c(=O)[nH]c(N)nc23)[C@](C)(O)[C@@H]1O [Compound 62]	4.62	–	–
C[C@@]1(O)[C@H](O)[C@@H](COP(=O)(O)OP(=O)(O)OP(=O)(O)O)O[C@H]1c1scc2c(=O)[nH]c(N)nc12 [Compound 63]	–	6.57	–
CCOC(=O)[C@H](C)NP(=O)(OC[C@H]1O[C@@H](c2scc3c(N)ncnc23)[C@](C)(O)[C@@H]1O)Oc1ccccc1 (stereo partly drawn) [Compound 64]	–	–	pEC50 (Replicon cells): 5.54
